# Measured values taken from ChEMBL document CHEMBL4043230, “Synthesis and biological evaluation of peptide-derived TSLP inhibitors” (Bioorg Med Chem Lett, 2017).
# Where a SMILES comes first, the peptide text is derived from it.
# Experiments:
# [1] = biological target: Thymic stromal lymphopoietin (Homo sapiens) (UniProt Q969D9); test: Inhibition of human N-terminal flag-tagged TSLP/human C-terminal octa histidine-tagged TSLPR interaction at 0.3 mM after 16 hrs by ELISA based spectrophotometric analysis
# [2] = biological target: Thymic stromal lymphopoietin (Homo sapiens) (UniProt Q969D9); test: Inhibition of human N-terminal flag-tagged TSLP/human C-terminal octa histidine-tagged TSLPR interaction at 1 mM after 16 hrs by ELISA based spectrophotometric analysis relative to control
# [3] = biological target: Thymic stromal lymphopoietin (Homo sapiens) (UniProt Q969D9); test: Inhibition of human N-terminal flag-tagged TSLP/human C-terminal octa histidine-tagged TSLPR interaction at 0.1 mM after 16 hrs by ELISA based spectrophotometric analysis
# Chain of Thymic stromal lymphopoietin (Homo sapiens) (Q969D9 whole entry): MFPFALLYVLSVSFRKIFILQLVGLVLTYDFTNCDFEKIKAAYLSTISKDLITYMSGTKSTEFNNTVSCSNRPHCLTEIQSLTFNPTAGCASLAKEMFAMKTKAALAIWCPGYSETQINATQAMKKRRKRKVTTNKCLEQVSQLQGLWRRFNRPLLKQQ
SMILES,inhibition [1] [%],inhibition [2] [%],inhibition [3] [%]
CC(=O)N[C@@H](CCCNC(=N)N)C(=O)N[C@@H](C)C(=O)N[C@@H](C)C(=O)N[C@@H](Cc1cnc[nH]1)C(=O)N[C@@H](Cc1ccc(O)cc1)C(=O)NCC(=O)N[C@@H](CC(C)C)C(=O)N[C@@H](CCC(=O)O)C(=O)N[C@@H](C)C(=O)O (Ac-RAAHYGLEA-OH),11,34,12
CC(C)C[C@H](NC(=O)CNC(=O)[C@H](Cc1ccc(O)cc1)NC(=O)[C@H](Cc1cnc[nH]1)NC(=O)[C@H](C)NC(=O)[C@H](C)N)C(=O)N[C@@H](CCC(=O)O)C(=O)N[C@@H](C)C(=O)O (H-AAHYGLEA-OH),23,59,5
C[C@H](NC(=O)[C@H](CO)NC(=O)[C@H](C)NC(=O)[C@H](CCCNC(=N)N)NC(=O)[C@H](CCC(N)=O)NC(=O)[C@@H](N)CCCNC(=N)N)C(=O)O (H-RQRASA-OH),15,18,19
CC(=O)N[C@@H](CCCNC(=N)N)C(=O)N[C@@H](CCC(N)=O)C(=O)N[C@@H](CCCNC(=N)N)C(=O)N[C@@H](C)C(=O)N[C@@H](CO)C(=O)N[C@@H](C)C(=O)O (Ac-RQRASA-OH),22,18,22
C[C@H](NC(=O)[C@H](CO)NC(=O)[C@H](C)NC(=O)[C@H](CCCNC(=N)N)NC(=O)[C@H](CCC(N)=O)NC(=O)[C@@H](N)CCCNC(=N)N)C(=O)N[C@@H](Cc1c[nH]c2ccccc12)C(=O)O (H-RQRASAW-OH),47,46,38
CC(=O)N[C@@H](C)C(=O)N[C@@H](C)C(=O)N[C@@H](Cc1cnc[nH]1)C(=O)N[C@@H](Cc1ccc(O)cc1)C(=O)NCC(=O)N[C@@H](CC(C)C)C(=O)N[C@@H](CCC(=O)O)C(=O)N[C@@H](C)C(=O)O (Ac-AAHYGLEA-OH),4,26,2
C[C@H](N)C(=O)N[C@@H](CCCNC(=N)N)C(=O)N[C@@H](CCC(N)=O)C(=O)N[C@@H](CCCNC(=N)N)C(=O)N[C@@H](C)C(=O)N[C@@H](CO)C(=O)N[C@@H](C)C(=O)N[C@@H](Cc1c[nH]c2ccccc12)C(=O)O (H-ARQRASAW-OH),49,60,42
CC(C)C[C@H](NC(=O)CNC(=O)[C@H](Cc1ccc(O)cc1)NC(=O)[C@H](Cc1cnc[nH]1)NC(=O)[C@H](C)NC(=O)[C@H](C)NC(=O)[C@@H](N)CCCNC(=N)N)C(=O)N[C@@H](CCC(=O)O)C(=O)N[C@@H](C)C(=O)O (H-RAAHYGLEA-OH),17,35,7
CC(=O)N[C@@H](CCCNC(=N)N)C(=O)N[C@@H](C)C(=O)N[C@@H](C)C(=O)N[C@@H](Cc1cnc[nH]1)C(=O)N[C@@H](Cc1ccc(O)cc1)C(=O)NCC(=O)N[C@@H](CC(C)C)C(=O)N[C@@H](CCC(=O)O)C(=O)O (Ac-RAAHYGLE-OH),15,52,5
CC(C)C[C@H](NC(=O)CNC(=O)[C@H](Cc1ccc(O)cc1)NC(=O)[C@H](Cc1cnc[nH]1)NC(=O)[C@H](C)NC(=O)[C@H](C)N)C(=O)N[C@@H](CCC(=O)O)C(=O)O (H-AAHYGLE-OH),3,16,2
CC(=O)N[C@@H](CCCNC(=N)N)C(=O)N[C@@H](CCC(N)=O)C(=O)N[C@@H](CCCNC(=N)N)C(=O)N[C@@H](C)C(=O)N[C@@H](CO)C(=O)N[C@@H](C)C(=O)N[C@@H](Cc1c[nH]c2ccccc12)C(=O)O (Ac-RQRASAW-OH),44,56,38
CC(=O)N[C@@H](C)C(=O)N[C@@H](CCCNC(=N)N)C(=O)N[C@@H](CCC(N)=O)C(=O)N[C@@H](CCCNC(=N)N)C(=O)N[C@@H](C)C(=O)N[C@@H](CO)C(=O)N[C@@H](C)C(=O)N[C@@H](Cc1c[nH]c2ccccc12)C(=O)O (Ac-ARQRASAW-OH),56,65,50
CC(=O)N[C@@H](C)C(=O)N[C@@H](C)C(=O)N[C@@H](Cc1cnc[nH]1)C(=O)N[C@@H](Cc1ccc(O)cc1)C(=O)NCC(=O)N[C@@H](CC(C)C)C(=O)N[C@@H](CCC(=O)O)C(=O)O (Ac-AAHYGLE-OH),11,37,4
C[C@H](N)C(=O)N[C@@H](CCCNC(=N)N)C(=O)N[C@@H](CCC(N)=O)C(=O)N[C@@H](CCCNC(=N)N)C(=O)N[C@@H](C)C(=O)N[C@@H](CO)C(=O)N[C@@H](C)C(=O)O (H-ARQRASA-OH),32,30,30
CC(=O)N[C@@H](C)C(=O)N[C@@H](CCCNC(=N)N)C(=O)N[C@@H](CCC(N)=O)C(=O)N[C@@H](CCCNC(=N)N)C(=O)N[C@@H](C)C(=O)N[C@@H](CO)C(=O)N[C@@H](C)C(=O)O (Ac-ARQRASA-OH),30,26,30
CC(C)C[C@H](NC(=O)CNC(=O)[C@H](Cc1ccc(O)cc1)NC(=O)[C@H](Cc1cnc[nH]1)NC(=O)[C@H](C)NC(=O)[C@H](C)NC(=O)[C@@H](N)CCCNC(=N)N)C(=O)N[C@@H](CCC(=O)O)C(=O)O (H-RAAHYGLE-OH),10,45,4
